# Measured values published in patent US20070015702A1, “Method of treatment and/or prevention of neuropathic pain” (Asahi Kasei Pharma Corporation, priority 2005, published 2007).
# Read-outs that look alike come from different tables or passages of the source.
# Columns and labels:
# [1] = tested on: chronic constriction injury model (CCI model); assay: Continuous administration of elcatonin in CCI model, hyperalgesia, withdrawal latency (BASILE Plantar Test); type: in vivo, rat
# Experimental: An apparatus measures a time (withdrawal latency) until escaping after giving nociceptive heat stimulus to a posterior limb in a rat under unrestrained condition. Right hindlimb was measured as a measurement leg. Initially, a rat was placed in an acryl box on a glass plate, and domesticated for about 5 minutes. Amoving type I.R (infrared) generator (I.R. vessel) was placed under the glass plate, and “sight” cross (I.R. irradiation position) inscribed on an upper panel of the I.R. vessel was adjusted to inside of six pads on the right hind paw. In this procedure, contact of the glass plate and hind paw was confirmed. Subsequently, a start key was pushed and heat stimulation was imparted, and withdrawal latency for escaping behavior of a rat of withdrawing limb was measured. When escaping behavior is caused, a switch is automatically turned off, and reaction time is counted. […] Measurement was carried out under clean condition so that there was no feces and no urine on the glass plate.
# [2] = tested on: chronic constriction injury model (CCI model); assay: Intermittent subcutaneous administration of elcatonin in CCI model, nociceptive threshold; type: in vivo, rat
# Experimental: On the 12th day or later after the constriction operation, ECT or vehicle was administered subcutaneously at 0.05 ml/B.W.100 g.
# [3] = tested on: chronic constriction injury model (CCI model)
# Excerpt: Under anesthesia with ether, a rat was placed in prone position, and while touching the right femur, the skin was dissected right above it. Biceps femoris was peeled at the center of the femur, and exposed by about 5 mm trying not to injure the sciatic nerve. Using 4-0 blade silk, the sciatic nerve was liegted loosely 4 times in turn from the peripheral side. Thereafter, the fascia and the skin were sutured.
# Using withdrawal threshold and body weight on the 8th day after the constriction operation as indices, the rats were divided into a CCI-vehicle group (12 rats), and CCI-ECT 0.75 mU/kg/week, CCI-ECT 7.5 mU/kg/week and CCI-ECT 75 mU/kg/week groups (each 12 rats), by a randomization method (SAS system, version 8.2). […] Body weight used for administration was estimated body weight after initiation of administration and calculated by multiplying body weight at start of administration by body weight increase coefficient (1.1) obtained in the preliminary experiment. […]
# First, the position of a pressure needle was controlled to confirm that an arm was horizontal to the thickness of a rat leg. […] When the rat withdrew the limb, the foot pedal was released, and a numerical value 0 to 25) of the moving matter on a scale was read. The read numerical value was multiplied by 20, to convert into pressed weight (withdrawal threshold). […]
# [4] = rat, in vivo, sc
# Experimental: Measurement of serum calcium value was conducted using calcium C-test wako (Wako).
# [5] = Shinyaku to Rinsho, 1990, vol. 39, no. 2; cited from earlier work
Substance,extent of analgesic action across dose range ([1]; 0.00075-75 U/kg/week continuous),analgesic action on continued administration ([1]; administration continued for 2 weeks),"analgesic action (withdrawal latency) ([1]; next day after initiation of continuous administration (12th day after operation), 0.00075, 0.0075, 0.075, 7.5, 75 U/kg/week, vs vehicle group)",analgesic action (nociceptive threshold) ([2]; 15 U/kg s.c. 3 times a week),day after initiation of administration from which the threshold initiated to recover ([2]; 15 U/kg s.c. 5 times a week) [days],"effect on nociceptive threshold until 3-rd day after initiation of administration ([2]; 15 U/kg s.c. intermittent, 3 or 5 times a week)","manifestation of analgesic effect ([2]; intermittent administration, dose further increased)","time after initiation of administration at which significant analgesic action was recognized ([3]; continuous s.c. administration, CCI rats) [h]","analgesic action (nociceptive threshold) ([3]; continuous s.c. mini osmotic pump, 0.75, 7.5, 75 mU/kg/week, from 11th day after constriction operation, vs vehicle group, Williams test)","maximum effective dose of neuropathic pain treatment by continuous administration ([1]; Example 2, rat) [U/kg/week]","maximum effective dose of neuropathic pain treatment by continuous administration, in terms of second ([1]; Example 2, rat) [mU/kg/second]",dose per unit time (second) at which serum calcium value changed (serum calcium alteration threshold) [4] [mU/kg/second],"ratio of calcitonin dose altering serum calcium value, rat versus human [5] [fold]"
1-butylic acid-7-(L-2-aminobutylic acid)-26-L-aspartic acid-27-L-valine-29-L-alaninecalcitonin [elcatonin],approximately constant,continuance of an analgesic action,significant analgesic action was confirmed in all elcatonin administration groups,a significant action was not observed,4,an effect was not observed,delay of manifestation of an analgesic effect was not improved,16,significant analgesic action,,,,
calcitonin,,,,,,,,,,75,0.124,15,25
